Reference: US20030114666A1, “Antibacterial agents” (priority 2001, published 2003)
Read-outs that look alike come from different tables or passages of the source.

Legend:
E. coli B90 = experiment: Test A antibacterial assay, standard microtitration (MIC); type: cell-based; settings: Gram negative; E. coli B90
Description: (§1) Test A-Antibacterial Assay
(§2) The compounds of the present invention were tested against an assortment of Gram-negative and Gram-positive organisms using standard microtitration techniques (Cohen, et al., Antimicrob. Agents Chemother., 1985;28:766; Heifetz, et al., Antimicrob. Agents Chemother:, 1974;6:124). […]

E. coli MC 4100 = experiment: as above; type: cell-based; settings: Gram negative; E. coli MC 4100
Description: as §1, §2

E. coli Tol C = experiment: as above; type: cell-based; settings: Gram negative; E. coli Tol C
Description: as §1, §2

S. aureus 29213 = experiment: as above; type: cell-based; settings: Gram positive; S. aureus 29213
Description: as §1, §2

S. pyogenes C203 = experiment: as above; type: cell-based; settings: Gram positive; S. pyogenes C203
Description: as §1, §2

E. faecalis RB1 = experiment: as above; type: cell-based; settings: Gram positive; E. faecalis RB1
Description: as §1, §2

E. coli gyrase = E. coli gyrase (Escherichia coli, UniProt P0AES4+P0AES6); experiment: biochemical
Chain of E. coli gyrase (P0AES4 whole entry, one chain of several): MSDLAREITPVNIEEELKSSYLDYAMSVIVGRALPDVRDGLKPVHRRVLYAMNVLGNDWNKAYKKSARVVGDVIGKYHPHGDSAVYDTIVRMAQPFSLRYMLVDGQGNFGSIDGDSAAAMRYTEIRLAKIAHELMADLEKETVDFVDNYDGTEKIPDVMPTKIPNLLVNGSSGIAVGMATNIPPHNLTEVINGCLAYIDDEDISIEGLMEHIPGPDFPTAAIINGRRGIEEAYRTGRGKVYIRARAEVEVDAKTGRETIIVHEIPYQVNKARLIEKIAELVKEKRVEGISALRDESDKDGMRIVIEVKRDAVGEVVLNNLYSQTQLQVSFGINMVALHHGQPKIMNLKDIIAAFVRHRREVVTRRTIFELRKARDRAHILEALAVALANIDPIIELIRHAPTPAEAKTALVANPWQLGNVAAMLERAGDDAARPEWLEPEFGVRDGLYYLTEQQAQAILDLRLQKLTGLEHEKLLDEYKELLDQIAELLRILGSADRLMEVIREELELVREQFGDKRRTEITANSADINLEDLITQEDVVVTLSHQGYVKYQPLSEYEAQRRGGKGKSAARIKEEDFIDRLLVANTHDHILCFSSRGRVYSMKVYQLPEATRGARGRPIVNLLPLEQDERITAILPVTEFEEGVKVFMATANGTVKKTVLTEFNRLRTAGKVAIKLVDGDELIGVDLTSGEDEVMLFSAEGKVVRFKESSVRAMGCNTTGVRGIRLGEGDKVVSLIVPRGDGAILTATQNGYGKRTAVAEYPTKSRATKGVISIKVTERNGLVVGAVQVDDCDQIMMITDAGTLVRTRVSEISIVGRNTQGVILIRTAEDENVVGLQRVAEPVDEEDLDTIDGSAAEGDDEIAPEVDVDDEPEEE

[1] = supercoiling of relaxed pBR322, 30 minutes at 37° C.

Compound | Minimum Inhibitory Concentrations E. coli B90 (E. coli B90) | Minimum Inhibitory Concentrations E. coli MC 4100 (E. coli MC 4100) | Minimum Inhibitory Concentrations E. coli Tol C (E. coli Tol C) | Minimum Inhibitory Concentrations S. aureus 29213 (S. aureus 29213) | Minimum Inhibitory Concentrations S. pyogenes C203 (S. pyogenes C203) | Minimum Inhibitory Concentrations E. faecalis RB1 (E. faecalis RB1) | IC50 (E. coli gyrase; [1]) | IC50 (E. coli gyrase)
1-Cyclopropyl-7-(5,5-difluoro-4-hydroxy-4,5,6,7-tetrahydrobenzo[b]thiophen-2-yl)-6-fluoro-8-methyl-1H-quinazolinedione [Example 23b] | 0.13 µg/mL | 16.0 µg/mL | <0.06 µg/mL | 0.5 µg/mL | 2.0 µg/mL | 1.0 µg/mL | 1 µM | 
7-[(R)-3-(1-Aminocyclopropyl)pyrrolidin-1-yl]-1-cyclopropyl-6-fluoro-8-methyl-1 h-quinazolinedione Hydrochloride [Example 26b] | 0.25 µg/mL | 2.0 µg/mL | 0.13 µg/mL | 0.25 µg/mL | 0.03 µg/mL | 0.13 µg/mL |  | 1.6 µM
7-[(R)-3-((S)-1-Aminoethyl)pyrrolidin-1-yl]-1-cyclopropyl-6-fluoro-5,8-dimethyl-1H-quinazolinedione Hydrochloride [Example 41c] | 0.25 µg/mL | 2.0 µg/mL | 0.06 µg/mL | 0.03 µg/mL | 0.008 µg/mL | 0.03 µg/mL |  | 0.6 µM
CC1COc2c(N3CC[C@@H]([C@H](C)N)C3)c(F)c(N)c3c(=O)[nH]c(=O)n1c23.Cl (stereo partly drawn) [Example 16d, 7-Amino-9-[9-(R)-3-((S)-1-aminoethyl)pyrrolidin-1-yl)-8-fluoro-3-methyl-2,3-dihydro-1-oxa-3a,5-diazaphenalene-4,6-dione Hydrochloride] | 16.0 µg/mL | >64.0 µg/mL | 4.0 µg/mL | 1.0 µg/mL | 0.5 µg/mL | 1.0 µg/mL |  | 25 µM
Cc1c(N2CCC(C(N)CF)C2)c(F)cc2c(=O)[nH]c(=O)n(C3CC3)c12.Cl (centres unmarked) [Example 19f, 7-[3-(1-Amino-2-fluoroethyl)pyrrolidin-1-yl]-1-cyclopropyl-6-fluoro-8-methyl-1H-quinazolinedione Hydrochloride] | 0.25 µg/mL | 4.0 µg/mL | 0.13 µg/mL | 0.13 µg/mL | 0.06 µg/mL | 0.06 µg/mL | 1.8 µM | 
